Read-outs that look alike come from different tables or passages of the source.
Columns and labels:
[1] = Pharmacokinetic test (BA, CLtot); format: in vivo; details: rat, plasma, SD rats
Protocol: • (1) Animals: SD rats were used • (2) Breeding conditions: SD rats were allowed to freely take solid food and sterilized tap water. • (3) Dose and grouping: orally or intravenously administered at a predetermined dose; grouping was as follows (Dose depends on the compound)
Oral administration: 1 mg/kg (n=2)
The total body clearance (CLtot) was calculated by dividing the dose by the AUC of the intravenous administration group.

CYP1A2 = CYP1A2 (Homo sapiens (Human), UniProt P05177); experiment: CYP inhibition test, CYP1A2; format: in vitro ADME; details: pooled human hepatic microsome; 7-ethoxyresorufin-O-deethylation
Sequence of CYP1A2 (P05177 whole entry): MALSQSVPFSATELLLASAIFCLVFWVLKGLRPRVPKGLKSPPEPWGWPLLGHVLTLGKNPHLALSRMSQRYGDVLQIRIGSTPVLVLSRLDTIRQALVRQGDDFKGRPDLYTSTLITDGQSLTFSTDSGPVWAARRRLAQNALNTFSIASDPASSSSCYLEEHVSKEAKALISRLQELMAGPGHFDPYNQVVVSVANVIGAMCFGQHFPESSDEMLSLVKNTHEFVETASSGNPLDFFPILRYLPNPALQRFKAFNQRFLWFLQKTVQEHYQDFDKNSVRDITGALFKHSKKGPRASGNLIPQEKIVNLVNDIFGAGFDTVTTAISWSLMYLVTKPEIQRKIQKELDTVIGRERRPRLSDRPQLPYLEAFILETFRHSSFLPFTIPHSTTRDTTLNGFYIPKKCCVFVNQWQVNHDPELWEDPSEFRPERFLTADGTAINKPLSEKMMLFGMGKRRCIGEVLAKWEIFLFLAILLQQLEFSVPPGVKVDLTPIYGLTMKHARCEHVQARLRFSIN
Protocol: (§1) Using commercially available pooled human hepatic microsome, and employing, as markers, 7-ethoxyresorufin-O-deethylation (CYP1A2), tolbutamide methyl-hydroxylation (CYP2C9), mephenytoin 4′-hydroxylation (CYP2C19), dextromethorphan O-demethylation (CYP2D6), and terfenedine hydroxylation as typical substrate metabolism reactions of human main five CYP enzyme forms (CYP1A2, 2C9, 2C19, 2D6, 3A4), an inhibitory degree of each metabolite production amount by a test compound was assessed.
(§2) The reaction conditions were as follows: substrate, 0.5 μmol/L ethoxyresorufin (CYP1A2), 100 μmol/L tolbutamide (CYP2C9), 50 μmol/L S-mephenitoin (CYP2C19), 5 μmol/L dextromethorphan (CYP2D6), 1 μmol/L terfenedine (CYP3A4); reaction time, 15 minutes; reaction temperature, 37° C. enzyme, pooled human hepatic microsome 0.2 mg protein/mL; test, drug concentration, 1.0, 5.0, 10, 20 μmol/L (four points).
(§3) Each five kinds of substrates, human hepatic microsome, or a test drug in 50 mmol/L Hepes buffer as a reaction solution was added to a […] at the composition as described above, NADPH, as a cofactor was added to initiate metabolism reactions as markers and, after the incubation at 37° C. for 15 minutes, a methanol/acetonitrile=1/1 (v/v) solution was added to stop the reaction. After the centrifugation at 3000 rpm for 15 minutes, resorufin (CYP1A2 metabolite) in the supernatant was quantified by a fluorescent multilabel counter and tributamide hydroxide (CYP2CP metabolite), mephenytoin 4′hydroxide (CYP2C19 metabolite), […] (CYP2D6 metabolite), and terfenadine alcohol (CYP3A4 metabolite) were quantified by LC/MS/MS.
(§4) Addition of only DMSO being a solvent dissolving a drug to a reaction system was adopted as a control (100%), remaining activity (%) was calculated at each concentration of a test drug added as the solution and IC50 was calculated by reverse presumption by a logistic model using a concentration and an inhibition rate.

CYP2C9 = CYP2C9 (Homo sapiens (Human), UniProt P11712); experiment: CYP inhibition test, CYP2C9; format: in vitro ADME; details: pooled human hepatic microsome; tolbutamide methyl-hydroxylation
Sequence of CYP2C9 (P11712 whole entry): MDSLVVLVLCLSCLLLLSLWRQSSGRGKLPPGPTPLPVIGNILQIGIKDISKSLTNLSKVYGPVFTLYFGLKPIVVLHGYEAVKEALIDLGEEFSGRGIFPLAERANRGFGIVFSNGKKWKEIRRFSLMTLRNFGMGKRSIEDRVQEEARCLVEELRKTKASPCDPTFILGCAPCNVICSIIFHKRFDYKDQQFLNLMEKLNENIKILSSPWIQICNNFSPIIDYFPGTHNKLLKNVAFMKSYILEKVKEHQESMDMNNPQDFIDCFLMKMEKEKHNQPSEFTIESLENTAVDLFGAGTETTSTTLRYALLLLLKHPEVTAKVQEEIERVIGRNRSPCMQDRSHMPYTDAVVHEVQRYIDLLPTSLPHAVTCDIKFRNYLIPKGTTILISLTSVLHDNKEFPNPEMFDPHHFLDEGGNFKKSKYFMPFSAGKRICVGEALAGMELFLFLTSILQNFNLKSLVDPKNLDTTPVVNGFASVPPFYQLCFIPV
Protocol: as §1, §2, §3, §4

CYP2C19 = CYP2C19 (Homo sapiens (Human), UniProt P33261); experiment: CYP inhibition test, CYP2C19; format: in vitro ADME; details: pooled human hepatic microsome; mephenytoin 4′-hydroxylation
Sequence of CYP2C19 (P33261 whole entry): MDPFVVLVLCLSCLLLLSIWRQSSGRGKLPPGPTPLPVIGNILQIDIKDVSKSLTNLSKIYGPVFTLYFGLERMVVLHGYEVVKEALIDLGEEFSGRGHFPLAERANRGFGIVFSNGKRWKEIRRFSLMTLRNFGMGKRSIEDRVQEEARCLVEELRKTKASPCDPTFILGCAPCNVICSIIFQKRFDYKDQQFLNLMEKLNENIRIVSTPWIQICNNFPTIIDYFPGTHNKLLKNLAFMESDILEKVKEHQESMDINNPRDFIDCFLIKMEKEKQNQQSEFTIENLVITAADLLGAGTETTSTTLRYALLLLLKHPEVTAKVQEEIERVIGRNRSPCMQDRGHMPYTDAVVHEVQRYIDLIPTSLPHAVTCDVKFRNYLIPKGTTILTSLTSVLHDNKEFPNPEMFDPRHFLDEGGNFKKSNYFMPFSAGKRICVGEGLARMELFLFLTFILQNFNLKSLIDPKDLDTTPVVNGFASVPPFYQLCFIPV
Protocol: as §1, §2, §3, §4

CYP2D6 = CYP2D6 (Homo sapiens (Human), UniProt P10635); experiment: CYP inhibition test, CYP2D6; format: in vitro ADME; details: pooled human hepatic microsome; dextromethorphan O-demethylation
Sequence of CYP2D6 (P10635 whole entry): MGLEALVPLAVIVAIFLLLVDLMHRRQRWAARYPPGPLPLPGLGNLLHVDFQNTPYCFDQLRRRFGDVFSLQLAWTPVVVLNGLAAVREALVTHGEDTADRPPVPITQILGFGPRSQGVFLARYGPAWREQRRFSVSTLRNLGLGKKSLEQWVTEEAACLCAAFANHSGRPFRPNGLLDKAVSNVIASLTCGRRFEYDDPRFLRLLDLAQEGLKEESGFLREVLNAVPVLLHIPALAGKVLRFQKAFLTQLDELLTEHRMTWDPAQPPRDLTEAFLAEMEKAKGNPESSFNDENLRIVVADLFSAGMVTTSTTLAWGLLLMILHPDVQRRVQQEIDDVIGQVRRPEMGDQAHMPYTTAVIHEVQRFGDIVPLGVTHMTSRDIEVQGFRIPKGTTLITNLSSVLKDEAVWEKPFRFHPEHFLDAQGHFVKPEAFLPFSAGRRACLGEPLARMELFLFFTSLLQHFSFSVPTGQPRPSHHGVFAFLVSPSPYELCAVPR
Protocol: as §1, §2, §3, §4

CYP3A4 = CYP3A4 (Homo sapiens (Human), UniProt P08684); experiment: CYP inhibition test, CYP3A4; format: in vitro ADME; details: pooled human hepatic microsome; terfenedine hydroxylation
Sequence of CYP3A4 (P08684 whole entry): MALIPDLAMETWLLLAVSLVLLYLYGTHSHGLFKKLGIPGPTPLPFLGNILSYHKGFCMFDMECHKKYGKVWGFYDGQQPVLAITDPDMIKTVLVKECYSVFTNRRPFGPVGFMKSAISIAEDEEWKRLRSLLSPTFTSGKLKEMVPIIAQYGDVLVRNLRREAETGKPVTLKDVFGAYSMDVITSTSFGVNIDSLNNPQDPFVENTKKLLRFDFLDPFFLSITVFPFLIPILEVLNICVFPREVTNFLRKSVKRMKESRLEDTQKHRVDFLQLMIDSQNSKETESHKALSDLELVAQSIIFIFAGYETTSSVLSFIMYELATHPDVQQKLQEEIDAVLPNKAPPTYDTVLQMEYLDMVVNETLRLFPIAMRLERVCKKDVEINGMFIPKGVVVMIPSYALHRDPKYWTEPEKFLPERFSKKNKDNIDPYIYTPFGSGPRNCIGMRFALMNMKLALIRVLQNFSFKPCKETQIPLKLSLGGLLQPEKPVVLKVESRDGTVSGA
Protocol: as §1, §2, §3, §4

[2] = intravenous administration 0.5 mg/kg
[3] = intravenous administration 0.5 mg/kg, read-out: AUC (iv)
[4] = oral administration 1 mg/kg, read-out: AUC (po)

`C[C@@H](Cn1c(=O)[nH]/c(=N\c2ccc(Oc3cccc(Cl)n3)cc2)n(Cc2ccc(Cl)cc2)c1=O)C(=O)O` [Compound I-014] gave a clearance [1, 2] of 4 mL/min/kg, an AUC [1, 3] of 2300 ng·h/mL and an AUC [1, 4] of 4890 ng·h/mL.

Molecule `O=C(O)C1(Cn2c(=O)[nH]/c(=N\c3ccc(Oc4cccc(F)n4)cc3)n(Cc3ccc(Cl)cc3)c2=O)CC1` [Compound I-017] has a clearance [1, 2] of 2.3 mL/min/kg, an AUC [1, 3] of 3790 ng·h/mL and an AUC [1, 4] of 6110 ng·h/mL.

`Cc1ccc(Oc2ccc(/N=c3\[nH]c(=O)n(CC(C)(C)C(=O)O)c(=O)n3Cc3ccc(Cl)cc3)cc2)nc1` [Compound I-058] showed a clearance [1, 2] of 5.8 mL/min/kg, an AUC [1, 3] of 1510 ng·h/mL and an AUC [1, 4] of 2030 ng·h/mL.

For `COc1ccnc(Oc2ccc(/N=c3\[nH]c(=O)n(C[C@H](C)C(=O)O)c(=O)n3Cc3ccc(Cl)cc3)cc2)c1` [Compound I-069], the IC50 (CYP1A2) was over 20 µM, the IC50 (CYP2C9) was over 20 µM and the IC50 (CYP2C19) was over 20 µM. For the same molecule, the IC50 (CYP2D6) was over 20 µM and the IC50 (CYP3A4) was over 20 µM.

For `Cc1ccc(Cn2c(=O)n([C@@H](C)[C@@H](C)C(=O)O)c(=O)[nH]/c2=N\c2ccc(Oc3cccc(F)n3)cc2)cc1` [Compound I-106], the IC50 (CYP1A2) was over 20 µM, the IC50 (CYP2C9) was over 20 µM and the IC50 (CYP2C19) was over 20 µM. It also gave an IC50 (CYP2D6) of over 20 µM and an IC50 (CYP3A4) of over 20 µM.

Molecule `C[C@@H](Cn1c(=O)[nH]/c(=N\c2ccc(Oc3ccccn3)cc2)n(Cc2ccc(Cl)cc2)c1=O)C(=O)O` [Compound I-127] has a clearance [1, 2] of 3.8 mL/min/kg, an AUC [1, 3] of 2330 ng·h/mL and an AUC [1, 4] of 2460 ng·h/mL.

For `COc1nccc(Oc2ccc(/N=c3\[nH]c(=O)n([C@@H](C)[C@@H](C)C(=O)O)c(=O)n3Cc3ccc(Cl)cc3)cc2)n1` [Compound R-010], the IC50 (CYP1A2) was over 20 µM, the IC50 (CYP2C9) was over 20 µM and the IC50 (CYP2C19) was over 20 µM. It also gave an IC50 (CYP2D6) of over 20 µM and an IC50 (CYP3A4) of over 20 µM.

With `CC(C)(Cn1c(=O)[nH]/c(=N\c2ccc(Oc3cnc(Cl)cn3)cc2)n(Cc2ccc(Cl)cc2)c1=O)C(=O)O` [Compound R-027] the IC50 (CYP1A2) was over 20 µM, the IC50 (CYP2C9) was over 20 µM and the IC50 (CYP2C19) was over 20 µM. For the same molecule, the IC50 (CYP2D6) was over 20 µM and the IC50 (CYP3A4) was over 20 µM.

For `COc1cc(Oc2ccc(/N=c3\[nH]c(=O)n(C[C@H](C)C(=O)O)c(=O)n3Cc3ccc(Cl)cc3)cc2)cc(F)n1` [Compound R-058], the IC50 (CYP1A2) was over 20 µM, the IC50 (CYP2C9) was over 20 µM and the IC50 (CYP2C19) was over 20 µM. For the same molecule, the IC50 (CYP2D6) was over 20 µM and the IC50 (CYP3A4) was over 20 µM.

From patent publication US9732060B2, “Aminotriazine derivative and pharmaceutical composition comprising the same” (Shionogi & Co., Ltd., priority 2013, dated 2017)
